The subject of experiment [1] is HCT-116. As to the kind of experiment: MTT assay on cancer cell line HCT-116. The conditions noted are these: Homo sapiens. It is filed as cell-based, human. As to the method: (§1) Cell culture, growth conditions and treatments. […] Different molecules were dissolved in DMSO and were delivered to cell cultures in complete medium.
(In general: Formazan colour is commonly taken as a measure of viable cells.)

The subject of experiment [2] is MDA-MB435. The experiment can be described thus: MTT assay on cancer cell line MDA-MB435. The format is cell-based, Human. As to conditions: Homo sapiens, MDA-MB-435. The protocol: as §1
For experiment [3], the system named is PC-3. As to the kind of experiment: MTT assay on cancer cell line PC-3. The format is cell-based, human. The conditions noted are these: Homo sapiens. The protocol: as §1
Experiment [4] deals with SHSY-5Y. The experiment can be described thus: MTT assay on cancer cell line SHSY-5Y. It is filed as cell-based, human. As to conditions: Homo sapiens, SH-SY5Y. The protocol:
as §1

The target of experiment [5] is CDK-2/cyclin A (Homo sapiens, UniProt P24941). The experiment can be described thus: CDK inhibition assay, CDK-2/cyclin A against Histone HI, 33P-ATP. The format is biochemical. As to conditions: at 500 nM. An outline of the steps: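 CDK-2/cyclin A (5-20 mU) phosphorylating Histone HI (1 mg/ml) in 50 mM Hepes pH 7.5, 100 mM NaCl, 10 mM Mg acetate, 0.02 mM [33P-γ-ATP], 30 min at room temperature. Stopped with orthophosphoric acid, captured on P81 filters for radiometric readout.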

Experiment [6] concerns the target CDK-9/Cyclin T1 (Homo sapiens, UniProt P50750). The experiment can be described thus: CDK inhibition assay, CDK-9/Cyclin T1 against substrate peptide, 33P-ATP. It is filed as biochemical. The conditions noted are these: at 500 nM. The protocol:
(50-1000 cpm/pmole) and incubated for 30 min at room temperature. Assays were stopped by addition of 5 µl of 0.5 M (3%) orthophosphoric acid and then harvested onto P81 Unifilter plates with a wash buffer of 50 mM orthophosphoric acid.

In experiment [7] the test system is MCF-7. The experiment can be described thus: MTT assay on cancer cell line MCF-7. The format is cell-based, Human. As to conditions: Homo sapiens. The protocol:
as §1

[8] abbreviates: at 10µM, Table 8, read-out: In vitro cell inhibition, % of inhibition, HCT-116.
Where [9] appears, read: at 10 µM, read-out: inhibition against HCT-116 cell lines.
Setting [10] is: MDA-MB435, at 10µM, Table 8, read-out: In vitro cell inhibition, % of inhibition, MDA-MB435.
The mark [11] stands for this setting: at 10 µM, read-out: inhibition against MDAMB-435 cell lines.
[12] abbreviates: Table 8, read-out: In vitro cell inhibition, % of inhibition, PC-3.
Where [13] appears, read: SHSY-5Y, Table 8, read-out: In vitro cell inhibition, % of inhibition, SHSY-5Y.
The mark [14] stands for this setting: read-out: inhibition against SHSY-5Y cell lines.
Where [15] appears, read: Table-6, read-out: In vitro CDK2 % of inhibition.
Setting [16] is: read-out: inhibition against CDK2.
[17] abbreviates: Table-6, read-out: In vitro CDK9 % of inhibition.
[18] abbreviates: read-out: inhibition against CDK9.
The mark [19] stands for this setting: MCF7, MCF-7, Table 8, read-out: In vitro cell inhibition, % of inhibition, MCF-7.
Setting [20] is: MCF7, read-out: inhibition against MCF-7 cell lines.
[21] abbreviates: Table-7, read-out: In vitro CDK2 % of inhibition.
Where [22] appears, read: Table-7, read-out: In vitro CDK9 % of inhibition.
Setting [23] is: read-out: inhibition against PC-3 cell lines.

Drawing on patent EP3383875B1, “3-PYRIMIDINYL PYRROLO [2,3-B] PYRIDINE AS ANTICANCER AGENTS AND THE PROCESS FOR THE PREPARATION THEREOF” (Council Of Scientific & Industrial Research, priority 2015, dated 2017), this text covers inhibition for eleven compounds.

One may read the inhibition as the relative decrease from the control value, in per cent.

Read-outs that look alike come from different tables or passages of the source. A value given as a limit tells only on which side of the number the result lay.

Sequence of CDK-9/Cyclin T1 (P50750 whole entry): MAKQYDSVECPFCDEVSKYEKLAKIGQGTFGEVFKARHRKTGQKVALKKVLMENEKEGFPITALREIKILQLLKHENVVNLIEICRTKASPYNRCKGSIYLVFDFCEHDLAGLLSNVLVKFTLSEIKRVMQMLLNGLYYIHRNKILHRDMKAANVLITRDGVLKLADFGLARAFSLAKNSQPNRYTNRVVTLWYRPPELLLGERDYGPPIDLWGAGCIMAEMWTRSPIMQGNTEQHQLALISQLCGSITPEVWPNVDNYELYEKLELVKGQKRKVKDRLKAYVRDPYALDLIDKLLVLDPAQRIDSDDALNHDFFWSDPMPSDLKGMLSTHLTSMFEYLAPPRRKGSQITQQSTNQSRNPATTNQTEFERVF
Sequence of CDK-9/Cyclin T1 (O60563 whole entry partner): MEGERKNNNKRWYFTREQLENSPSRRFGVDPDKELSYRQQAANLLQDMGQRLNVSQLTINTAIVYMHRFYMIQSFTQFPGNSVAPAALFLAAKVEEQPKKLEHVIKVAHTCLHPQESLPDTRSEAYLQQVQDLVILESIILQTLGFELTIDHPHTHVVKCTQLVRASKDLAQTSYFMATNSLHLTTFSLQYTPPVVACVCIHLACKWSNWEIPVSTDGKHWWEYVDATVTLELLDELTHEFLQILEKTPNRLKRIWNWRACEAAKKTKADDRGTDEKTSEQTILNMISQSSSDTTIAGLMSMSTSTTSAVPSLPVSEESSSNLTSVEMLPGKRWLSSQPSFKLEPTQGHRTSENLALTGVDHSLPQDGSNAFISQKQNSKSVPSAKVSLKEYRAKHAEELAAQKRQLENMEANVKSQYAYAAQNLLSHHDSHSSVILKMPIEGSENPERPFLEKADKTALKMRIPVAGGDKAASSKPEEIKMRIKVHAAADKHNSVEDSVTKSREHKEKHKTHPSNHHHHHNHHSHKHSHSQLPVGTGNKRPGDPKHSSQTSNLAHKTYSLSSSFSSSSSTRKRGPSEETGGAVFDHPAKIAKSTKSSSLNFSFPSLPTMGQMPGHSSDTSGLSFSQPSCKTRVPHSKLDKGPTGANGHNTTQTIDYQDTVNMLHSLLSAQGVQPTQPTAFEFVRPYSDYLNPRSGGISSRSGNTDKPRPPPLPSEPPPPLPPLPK

Regarding `Fc1cccc(-c2cnc3[nH]cc(-c4ccnc(NC5CC5)n4)c3c2)c1` [1A5, N-cyclopropyl-4-(5-(3-fluorophenyl)-1H-pyrrolo[2,3-b]pyridin-3-yl)pyrimidin-2-amine], the inhibition at 10 µM in experiment [1] (setting [8]), in experiment [1] (setting [9]), in experiment [2] (setting [10]), in experiment [2] (setting [11]), in experiment [3] (setting [12]) and in experiment [4] (setting [13]) was more than 70% each time. Also, the inhibition at 10 µM in experiment [4] (setting [14]), in experiment [7] (setting [19]) and in experiment [7] (setting [20]) was more than 70% each time. Also, the inhibition at 0.5 µM in experiment [5] (setting [15]), in experiment [5] (setting [16]), in experiment [6] (setting [17]) and in experiment [6] (setting [18]) was more than 70% throughout.
For the compound `c1cncc(-c2cnc3[nH]cc(-c4ccnc(NC5CCCCCC5)n4)c3c2)c1` [1A55, N-cycloheptyl-4-(5-(pyridin-3-yl)-1H-pyrrolo[2,3-b]pyridin-3-yl)pyrimidin-2-amine], the inhibition at 10 µM in experiment [1] (setting [8]) is more than 50%; in experiment [2] (setting [10]), more than 50%; in experiment [3] (setting [12]), more than 50%; in experiment [4] (setting [13]), more than 70%; in experiment [4] (setting [14]), more than 70%; in experiment [7] (setting [19]), less than 50%. The inhibition at 10 µM in experiment [7] (setting [20]) is less than 50%. In addition, the inhibition at 0.5 µM in experiment [5] (setting [21]), in experiment [5] (setting [16]), in experiment [6] (setting [22]) and in experiment [6] (setting [18]) was more than 70% each time.
As for `c1ccc2c(-c3cnc4[nH]cc(-c5ccnc(NC6CC6)n5)c4c3)cccc2c1` [1A14, N-cyclopropyl-4-(5-(naphthalen-1-yl)-1H-pyrrolo[2,3-b]pyridin-3-yl)pyrimidin-2-amine], the inhibition at 10 µM in experiment [1] (setting [8]), in experiment [1] (setting [9]), in experiment [2] (setting [10]), in experiment [2] (setting [11]), in experiment [3] (setting [12]) and in experiment [4] (setting [13]) was more than 70% in each case. Further, the inhibition at 10 µM in experiment [4] (setting [14]), in experiment [7] (setting [19]) and in experiment [7] (setting [20]) was more than 70% throughout. In addition, the inhibition at 0.5 µM in experiment [5] (setting [15]), in experiment [5] (setting [16]), in experiment [6] (setting [17]) and in experiment [6] (setting [18]) was more than 50% in each case.
Take `c1cncc(-c2cnc3[nH]cc(-c4ccnc(NC5CC5)n4)c3c2)c1` [1A15, N-cyclopropyl-4-(5-(pyridin-3-yl)-1H-pyrrolo[2,3-b]pyridin-3-yl)pyrimidin-2-amine]: the inhibition at 10 µM is more than 70% in experiment [1] (setting [8]); more than 70% in experiment [1] (setting [9]); more than 70% in experiment [2] (setting [10]); more than 70% in experiment [2] (setting [11]); more than 50% in experiment [3] (setting [12]); more than 50% in experiment [3] (setting [23]). In addition, the inhibition at 10 µM in experiment [4] (setting [13]), in experiment [4] (setting [14]), in experiment [7] (setting [19]) and in experiment [7] (setting [20]) was more than 70% in each case. The inhibition at 0.5 µM in experiment [5] (setting [15]), in experiment [5] (setting [16]), in experiment [6] (setting [17]) and in experiment [6] (setting [18]) was more than 50% throughout.
For `Nc1nccc(-c2c[nH]c3ncc(-c4cccc5ccccc45)cc23)n1` [1C14, 4-(5-(naphthalen-1-yl)-1H-pyrrolo[2,3-b]pyridin-3-yl)pyrimidin-2-amine], the inhibition at 10 µM was more than 70% in experiment [1] (at 10µM, Table 9 (for reference), read-out: In vitro cell inhibition, % of inhibition, HCT-116); more than 50% in experiment [2] (MDA-MB435, at 10µM, Table 9 (for reference), read-out: In vitro cell inhibition, % of inhibition, MDA-MB435); more than 70% in experiment [3] (Table 9 (for reference), read-out: In vitro cell inhibition, % of inhibition, PC-3); more than 50% in experiment [4] (SHSY-5Y, Table 9 (for reference), read-out: In vitro cell inhibition, % of inhibition, SHSY-5Y); more than 50% in experiment [7] (MCF7, MCF-7, Table 9 (for reference), read-out: In vitro cell inhibition, % of inhibition, MCF-7); more than 50% in experiment [7] (setting [20]). Further, the inhibition at 0.5 µM in experiment [5] (setting [21]), in experiment [5] (setting [16]), in experiment [6] (setting [22]) and in experiment [6] (setting [18]) was more than 70% throughout.
On to `c1ccc(CCNc2nccc(-c3c[nH]c4ncc(-c5cccnc5)cc34)n2)cc1` [1B15, N-phenethyl-4-(5-(pyridin-3-yl)-1H-pyrrolo[2,3-b]pyridin-3-yl)pyrimidin-2-amine], for which the inhibition at 10 µM is more than 50% in experiment [1] (setting [8]); less than 50% in experiment [2] (setting [10]); less than 50% in experiment [3] (setting [12]); more than 70% in experiment [4] (setting [13]); more than 70% in experiment [4] (setting [14]); more than 50% in experiment [7] (setting [19]). The inhibition at 10 µM in experiment [7] (setting [20]) is more than 50%. For the same compound, the inhibition at 0.5 µM in experiment [5] (setting [21]), in experiment [5] (setting [16]), in experiment [6] (setting [22]) and in experiment [6] (setting [18]) was more than 70% in each case.
Consider `COc1ccc(-c2cnc3[nH]cc(-c4ccnc(NC5CCCC5)n4)c3c2)cc1` [1A31, N-cyclopentyl-4-(5-(4-methoxyphenyl)-1H-pyrrolo-[2,3-b]pyridin-3-yl)pyrimidin-2-amine], for which the inhibition at 10 µM in experiment [1] (setting [8]) was more than 50%; in experiment [2] (setting [10]), more than 50%; in experiment [3] (setting [12]), more than 50%; in experiment [3] (setting [23]) it was more than 50%; in experiment [4] (setting [13]) it was more than 70%; in experiment [4] (setting [14]) it was more than 70%. The inhibition at 10 µM in experiment [7] (setting [19]) and in experiment [7] (setting [20]) was less than 50% each time. The inhibition at 0.5 µM in experiment [5] (setting [15]), in experiment [5] (setting [16]), in experiment [6] (setting [17]) and in experiment [6] (setting [18]) was more than 50% in each case.
`COc1ccc(-c2cnc3[nH]cc(-c4ccnc(NC5CC5)n4)c3c2)cc1` [1A11, N-cyclopropyl-4-(5-(4-methoxyphenyl)-1H-pyrrolo[2,3-b]pyridin-3-yl)pyrimidin-2-amine]: the inhibition at 10 µM in experiment [1] (setting [8]) is more than 70%; in experiment [1] (setting [9]), more than 70%; in experiment [2] (setting [10]), more than 70%; in experiment [2] (setting [11]), more than 70%; in experiment [3] (setting [12]) it was more than 50%; in experiment [3] (setting [23]), more than 50%. Besides, the inhibition at 10 µM in experiment [4] (setting [13]), in experiment [4] (setting [14]), in experiment [7] (setting [19]) and in experiment [7] (setting [20]) was more than 70% each time. The inhibition at 0.5 µM in experiment [5] (setting [15]), in experiment [5] (setting [16]), in experiment [6] (setting [17]) and in experiment [6] (setting [18]) was more than 70% each time.
Regarding `Clc1ccc(-c2cnc3[nH]cc(-c4ccnc(NCCc5ccccc5)n4)c3c2)cc1` [1B12, 4-(5-(4-chlorophenyl)-1H-pyrrolo[2,3-b]pyridin-3-yl)-N-phenethylpyrimidin-2-amine], the inhibition at 10 µM in experiment [1] (setting [8]) was more than 50%; in experiment [2] (setting [10]) it was less than 50%; in experiment [3] (setting [12]), more than 70%; in experiment [4] (setting [13]), more than 70%; in experiment [4] (setting [14]) it was more than 70%; in experiment [7] (setting [19]) it was more than 50%. The inhibition at 0.5 µM in experiment [5] (setting [21]), in experiment [5] (setting [16]), in experiment [6] (setting [22]) and in experiment [6] (setting [18]) was more than 70% throughout.
With `Fc1ccc(-c2cnc3[nH]cc(-c4ccnc(NC5CCCC5)n4)c3c2)cc1` [1A22, N-cyclopentyl-4-(5-(4-fluorophenyl)-1H-pyrrolo[2,3-b]pyridin-3-yl)pyrimidin-2-amine], the inhibition at 10 µM in experiment [1] (setting [8]) is more than 50%; in experiment [2] (setting [10]) it was less than 50%; in experiment [3] (setting [12]), more than 50%; in experiment [4] (setting [13]), more than 70%; in experiment [4] (setting [14]) it was more than 70%; in experiment [7] (setting [19]), more than 50%. Further, the inhibition at 10 µM in experiment [7] (setting [20]) is more than 50%. Moreover, the inhibition at 0.5 µM in experiment [5] (setting [15]) and in experiment [6] (setting [17]) was more than 50% throughout.
As to `FC(F)(F)Oc1ccc(-c2cnc3[nH]cc(-c4ccnc(NC5CCCC5)n4)c3c2)cc1` [1A23, N-cyclopentyl-4-(5-(4-(trifluoromethoxy)phenyl)-1H-pyrrolo[2,3-b]pyridin-3-yl)pyrimidin-2-amine], the inhibition at 10 µM in experiment [1] (setting [8]) was more than 50%; in experiment [2] (setting [10]) it was less than 50%; in experiment [3] (setting [12]) it was more than 50%; in experiment [4] (setting [13]) it was more than 70%; in experiment [4] (setting [14]) it was more than 70%; in experiment [7] (setting [19]) it was more than 50%. The inhibition at 10 µM in experiment [7] (setting [20]) is more than 50%. The inhibition at 0.5 µM is more than 70% in experiment [5] (setting [15]) and more than 50% in experiment [6] (setting [17]).
